# Like-named read-outs stand apart in the source and are kept apart here.
# Tests used:
# [1] = target: T1, Helicobacter pylori-derived urease (Helicobacter pylori, UniProt P69996); assay: Screening of urease inhibitors (ammonia yield from urea); assay type: biochemical
# T1 construct: an urease solution prepared from Helicobacter pylori; endogenous in cells
# Protocol: Screening of Urease Inhibitors
# One hundred (100) μl of 100 mM Bis-Tris buffer (pH 6.5) and 60 μl of an urease solution prepared from Helicobacter pylori were added to 20 μl of a test drug dissolved in 0.1% dimethylformamide solution. The mixture was incubated at room temperature for 30 minutes, and then 20 μl of 100 mM urea was added. The mixture was kept at room temperature for 10 minutes, and then the yielded ammonia in the incubation mixture was measured using a commercial test kit (Ammonia Test Wako®; Wako Pure Chemical). The percent inhibition against the yield of ammonia in the solvent addition group was calculated to obtain the IC50 value.
# [2] = test system: Helicobacter pylori (CPY-433 F4); assay: Bacteria eradication effect of urease inhibitor (in vivo) in infected mice; conditions: male ICR mice, 10 mg/kg p.o. twice daily, lansoprazole 30 mg/kg s.c. once daily before first dose
# [3] = test system: Helicobacter pylori CPY 433 F4; assay: Bacteria eradication effect of flurofamide in infected mice; assay type: in vivo; conditions: male Crj:ICR mice; 100 mg/kg p.o. twice daily, 7 days, in 0.5% methylcellulose containing 1% sodium bicarbonate; * p<0.05 (chi^2 test); control 0/4
# Protocol: Bacteria Eradication Effect of Flurofamide
# To 5-week-aged male Crj:ICR mice previously fasted for 30 hours, Helicobacter pylori CPY 433 F4 was inoculated intragastrically at 10^7 CFU per mouse. One week after the infection, a test compound which was suspended in 0.5% methylcellulose containing 1% sodium bicarbonate was orally administered at 100 mg/kg twice daily for 7 days. On the next day after the final administration, the stomach of the infected mouse was excised and homogenated. A series of 10-fold dilutions were inoculated to modified Skirrow medium supplemented with activated charcoal and incubated at 37° C. for 4 days under slightly aerobic conditions. The bacteria eradication effect was determined by investigating whether bacterial growth was seen or not.
# [4] = 4 days for therapy, control 0/5
# T1 sequence (P69996 whole entry, looked up): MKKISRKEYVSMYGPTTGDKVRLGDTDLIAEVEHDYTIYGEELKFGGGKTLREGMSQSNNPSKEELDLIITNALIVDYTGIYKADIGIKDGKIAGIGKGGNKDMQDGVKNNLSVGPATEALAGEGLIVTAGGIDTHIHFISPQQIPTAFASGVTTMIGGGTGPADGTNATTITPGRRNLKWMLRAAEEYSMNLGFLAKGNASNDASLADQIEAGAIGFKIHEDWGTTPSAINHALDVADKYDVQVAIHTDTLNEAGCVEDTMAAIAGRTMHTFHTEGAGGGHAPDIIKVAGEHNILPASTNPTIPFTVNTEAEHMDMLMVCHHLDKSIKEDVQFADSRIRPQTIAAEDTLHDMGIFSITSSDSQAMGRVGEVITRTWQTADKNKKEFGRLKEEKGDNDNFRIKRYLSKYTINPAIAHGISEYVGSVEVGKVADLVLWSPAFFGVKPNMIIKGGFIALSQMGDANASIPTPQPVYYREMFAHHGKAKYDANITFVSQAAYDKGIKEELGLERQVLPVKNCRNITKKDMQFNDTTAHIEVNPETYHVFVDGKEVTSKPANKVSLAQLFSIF
Compound,IC50 [1] [nM],Eradication Rate ([2]; 2 days for therapy),further results
"Cc1sccc1C(=O)NP(N)(N)=O [Example 15, N-(Diaminophosphinyl)-2-methyl-3-thiophenecarboxamide]",1.7,2/5,–
"NP(N)(=O)NC(=O)COc1ccc(F)cc1 [Example 54, N-(Diaminophosphinyl)-4-fluorophenoxyacetamide]",3.3,–,Eradication Rate ([2]; 3 days for therapy): 1/5
"NP(N)(=O)NC(=O)c1ccsc1 [Example 2, N-(Diaminophosphinyl)-3-thiophenecarboxamide]",16,–,"Eradication Rate [2, 4]: 2/5"
"N#Cc1ccc(C(=O)NP(N)(N)=O)cc1 [Reference Example 17, N-(Diaminophosphinyl)-4-cyanobenzamide]",5.4,–,"Eradication Rate [2, 4]: 1/5"
"NP(N)(=O)NC(=O)c1ccoc1Cl [Example 45, N-(Diaminophosphinyl)-2-chloro-3-furancarboxamide]",1.4,1/5,–
"NP(N)(=O)NC(=O)c1ccc(F)cc1 [Reference Example 1, N-(Diaminophosphinyl)-4-fluorobenzamide, reference compound]",–,–,"Eradication Rate [3]: 4/5; IC50 ([1]; Bis-Tris pH 6.5, room temperature, 30 min preincubation, 10 min with urea, read-out: IC50, inhibitory effect against Helicobacter pylori-derived urease): 5 nM"
"NP(N)(=O)NC(=O)c1ccsc1Br [Example 26, N-(Diaminophosphinyl)-2-bromo-3-thiophenecarboxamide]",1.3,2/5,–
"Cc1cc(C(=O)NP(N)(N)=O)c(C)s1 [Example 32, N-(Diaminophosphinyl)-2,5-dimethyl-3-thiophenecarboxamide]",8.7,2/5,–
"NP(N)(=O)NC(=O)c1ccoc1 [Reference Example 29, N-(Diaminophosphinyl)-3-furancarboxamide]",5.9,–,"Eradication Rate [2, 4]: 2/5"
"CCc1ccc(C(=O)NP(N)(N)=O)o1 [Example 44, N-(Diaminophosphinyl)-5-ethyl-2-furancarboxamide]",14,1/5,–
"NP(N)(=O)NC(=O)c1csc(Cl)c1 [Example 30, N-(Diaminophosphinyl)-5-chloro-3-thiophenecarboxamide]",4.3,1/5,–
"N#Cc1ccc(C(=O)NP(N)(N)=O)s1 [Example 12, N-(Diaminophosphinyl)-5-cyano-2-thiophenecarboxamide]",3.6,1/5,–
"NP(N)(=O)NC(=O)c1ccco1 [Reference Example 25, N-(Diaminophosphinyl)-2-furancarboxamide]",1.9,–,"Eradication Rate [2, 4]: 1/5"
"NP(N)(=O)NC(=O)c1cccc([N+](=O)[O-])c1 [Reference Example 23, N-(Diaminophosphinyl)-3-nitrobenzamide]",5.7,–,"Eradication Rate [2, 4]: 1/5"
"NP(N)(=O)NC(=O)c1cc(Cl)sc1Cl [Example 25, N-(Diaminophosphinyl)-2,5-dichloro-3-thiophenecarboxamide]",1.1,1/5,–
"NP(N)(=O)NC(=O)c1coc(Br)c1 [Example 41, N-(Diaminophosphinyl)-5-bromo-3-furancarboxamide]",7.7,1/5,–
"Cc1ccc(C(=O)NP(N)(N)=O)s1 [Example 3, N-(Diaminophosphinyl)-5-methyl-2-thiophenecarboxamide]",5.5,–,"Eradication Rate [2, 4]: 2/5"
"Cc1csc(C(=O)NP(N)(N)=O)c1 [Example 28, N-(Diaminophosphinyl)-4-methyl-2-thiophenecarboxamide]",1.5,1/5,–
"NP(N)(=O)NC(=O)c1ccc(Br)cc1 [Reference Example 22, N-(Diaminophosphinyl)-4-bromobenzamide]",9.3,–,"Eradication Rate [2, 4]: 1/5"
"CCc1ccc(C(=O)NP(N)(N)=O)s1 [Example 9, N-(Diaminophosphinyl)-5-ethyl-2-thiophenecarboxamide]",13,1/5,–
"N#Cc1ccsc1C(=O)NP(N)(N)=O [Example 23, N-(Diaminophosphinyl)-3-cyano-2-thiophenecarboxamide]",2.2,1/5,–
"NP(N)(=O)NC(=O)c1ccc([N+](=O)[O-])o1 [Reference Example 30, N-(Diaminophosphiny1)-5-nitro-2-furancarboxamide]",4.3,–,Eradication Rate ([2]; 3 days for therapy): 2/5
"NP(N)(=O)NC(=O)c1coc(Cl)c1 [Example 46, N-(Diaminophosphinyl)-5-chloro-3-furancarboxamide]",5.7,1/5,–
"NP(N)(=O)NC(=O)c1csc(Br)c1 [Example 11, N-(Diaminophosphinyl)-5-bromo-3-thiophenecarboxamide]",4.2,1/5,–
"NP(N)(=O)NC(=O)c1sccc1C(F)F [Example 19, N-(Diaminophosphinyl)-3-difluoromethyl-2-thiophenecarboxamide]",4.6,1/5,–
"Cc1occc1C(=O)NP(N)(N)=O [Example 40, N-(Diaminophosphinyl)-2-methyl-3-furancarboxamide]",7.9,1/5,–
"CC(=O)c1ccc(C(=O)NP(N)(N)=O)s1 [Example 17, N-(Diaminophosphinyl)-5-acetyl-2-thiophenecarboxamide]",8.2,1/5,–
"NP(N)(=O)NC(=O)c1ccc(Cl)s1 [Example 5, N-(Diaminophosphinyl)-5-chloro-2-thiophenecarboxamide]",3,–,"Eradication Rate [2, 4]: 3/5"
